Measured values published in patent US4978663A, “5-(1-aminocyclohexyl)-2(1H)-pyridinone compounds which have pharmaceutical utility” (priority 1989, dated 1990).

Legend:
[1] = 2-phenyl-1,4-benzoquinone-induced writhing test in mice (PQW), analgesic activity; assay type: in vivo
[2] = Dark Avoidance Assay (reversal of scopolamine induced memory deficit); assay type: in vivo; conditions: mice, s.c., retest after 24 hours
Method: In this assay mice are tested for their ability to remember an unpleasant stimulus for a period of 24 hours. A mouse is placed in a chamber that contains a dark compartment; a strong incadescent light drives it to the dark compartment, where an electric shock is administered through metal plates on the floor. The animal is removed from the testing apparatus and tested again, 24 hours later, for the ability to remember the electric shock.
If scopolamine, an anticholinergic that is known to cause memory impairment, is administered before an animal's initial exposure to the test chamber, the animal re-enters the dark compartment shortly after being placed in the test chamber 24 hours later.

Compound	Analgesic PQW, % Inhibition of Writhing at 20 mg/kg., s.c. [1]	also measured
O=C(CN1CCC(C(=O)c2ccc(F)cc2)CC1)NC1(c2ccc(=O)[nH]c2)CCCCC1 [N-[1-(1,6-Dihydro-6-oxo-3-pyridinyl)cyclohexyl][4-(4-fluorobenzoyl)]-1-piperidineacetamide]	77%	
CNC(=O)Oc1ccc2c(c1)[C@]1(C)CCN(C)[C@@H]1N2C [Physostigmine, reference compound]		% of animals with scopolamine induced memory deficit reversal ([2]; 0.31 mg/kg): 20%
CC(=O)NC1(c2ccc(=O)n(C)c2)CCC(C(C)(C)C)CC1 (stereo not drawn) [cis-N-[1-(1,6-Dihydro-1-methyl-6-oxo-3-pyridinyl)-4-(1,1-dimethylethyl)cyclohexyl]acetamide]	47%	% of animals with scopolamine induced memory deficit reversal ([2]; 1.3 mg/kg): 33%
CC(=O)NC1(c2ccc(=O)n(C)c2)CCCCC1 [N-[1-(1,6-Dihydro-1-methyl-6-oxo-3-pyridinyl)cyclohexyl]acetamide]		% of animals with scopolamine induced memory deficit reversal ([2]; 0.63 mg/kg): 33%
NC1(c2ccc(=O)n(CC#CCN3CCCC3)c2)CCCCC1 [5-(1-Aminocyclohexyl)-1-[4-(pyrrolidin-1-yl)-2-butynyl]-2(1H)-pyridinone]	53%	
Cl.NC1(c2ccc(=O)n(Cc3ccccc3)c2)CCCCC1 [5-(1-Aminocyclohexyl)-1-(phenylmethyl)-2(1H)-pyridinone hydrochloride]	42%	% of animals with scopolamine induced memory deficit reversal ([2]; 0.16 mg/kg): 20%
CC1(C)CCC(N)(c2ccc(=O)[nH]c2)CC1.Cl [5-(1-Amino-4,4-dimethylcyclohexyl)-2(1H)-pyridinone hydrochloride]	62%	% of animals with scopolamine induced memory deficit reversal ([2]; 2.5 mg/kg): 20%
CC(=O)NC1(c2ccc(=O)[nH]c2)CCCCC1 [N-[1-(1,6-Dihydro-6-oxo-3-pyridinyl)cyclohexyl]acetamide]	58%	
O=C(NC1(c2ccc(=O)[nH]c2)CCCCC1)c1ccccc1 [N-[1-(1,6-Dihydro-6-oxo-3-pyridinyl)cyclohexyl]benzamide]	72%	
CCC(=O)O[C@](Cc1ccccc1)(c1ccccc1)[C@H](C)CN(C)C [Propoxyphene, reference compound]		Analgesic PQW, % Inhibition of Writhing ([1]; 3.9 mg/kg, s.c.): 50%
